Results from US20090181989A1, “Purine Compunds as HSP90 Protein Inhibitors for the Treatment of Cancer” (VERNALIS ( R & D) LTD., priority 2005, published 2009).

target: T1, human full-length HSP90 (Homo sapiens, UniProt P08238); assay: Fluorescence polarization assay (competitive displacement of fluorescein-labelled probe VER00051001-FAM from HSP90); format: binding; conditions: activity range in the fluorescence polarization assay; E. coli expressed human full-length HSP90 200 nM, probe 80 nM
T1 construct: E. coli expressed human full-length HSP90 protein; made in house; host or cells: E. coli
Excerpt: Fluorescence Polarization Assay
Fluorescence polarization {also known as fluorescence anisotropy} measures the rotation of a fluorescing species in solution, where the larger molecule the more polarized the fluorescence emission. When the fluorophore is excited with polarized light, the emitted light is also polarized. The molecular size is proportional to the polarization of the fluorescence emission.
The fluoroscein-labelled probe-VER00051001-FAM-
binds to HSP90 {full-length human, full-length yeast or N-terminal domain HSP90} and the anisotropy {rotation of the probe:protein complex} is measured.
Test compound is added to the assay plate, left to equilibrate and the anisotropy measured again. Any change in anisotropy is due to competitive binding of compound to HSP90, thereby releasing probe.
Chemicals are of the highest purity commercially available and all aqueous solutions are made up in AR water. • 1) Costar 96-well black assay plate #3915 • 2) Assay buffer of (a) 100 mM Tris pH7.4; (b) 20 mM KCl; (c) 6 mM MgCl2. Stored at room temperature. • 3) BSA (bovine serum albumen) 10 mg/ml (New England Biolabs # B9001S) • 4) 20 mM probe in 100% DMSO stock concentration. Stored in the dark at RT. Working concentration is 200 nM diluted in AR water and stored at 4° C. Final concentration in assay 80 nM. • 5) E. coli expressed human full-length HSP90 protein, purified >95% (see, e.g., Panaretou et al., 1998) and stored in 50 μL aliquots at −80° C.
• 1) Add 100 μl 1× buffer to wells 11A and 12A(═FPBLNK) • 2) Prepare assay mix—all reagents are kept on ice with a lid on the bucket as the probe is light-sensitive.
• 3) Aliquot 100 μl assay mix to all other wells • 4) Seal plate and leave in dark at room temp for 20 minutes to equilibrate Compound Dilution Plate—1×3 dilution series • 1) In a clear 96-well v-bottom plate—{# VWR 007/008/257} add 10 μl 100% DMSO to wells B1 to H11 • 2) To wells A1 to A11 add 17.5 μl 100% DMSO • 3) Add 2.5 μl cpd to A1. This gives 2.5 mM {50×} stock cpd—assuming cpds 20 mM. • 4) Repeat for wells A2 to A10. Control in columns 11 and 12. • 5) Transfer 5 μl from row A to row B- not column 12. Mix well. • 6) Transfer 5 μl from row B to row C. […] In column 11 {provides standard curve} only add compound B11-H11. Add 2 μl of 100 mM standard cpd to wells B12-H12 {is positive control} • 13) The Z′ factor is calculated from zero controls and positive wells. It typically gives a value of 0.7-0.9.
The compounds tested in the above assay were assigned to one of two activity ranges, namely A=<10 μM; B=>10 μM, and those assignments are reported above.

T1 sequence (P08238 whole entry): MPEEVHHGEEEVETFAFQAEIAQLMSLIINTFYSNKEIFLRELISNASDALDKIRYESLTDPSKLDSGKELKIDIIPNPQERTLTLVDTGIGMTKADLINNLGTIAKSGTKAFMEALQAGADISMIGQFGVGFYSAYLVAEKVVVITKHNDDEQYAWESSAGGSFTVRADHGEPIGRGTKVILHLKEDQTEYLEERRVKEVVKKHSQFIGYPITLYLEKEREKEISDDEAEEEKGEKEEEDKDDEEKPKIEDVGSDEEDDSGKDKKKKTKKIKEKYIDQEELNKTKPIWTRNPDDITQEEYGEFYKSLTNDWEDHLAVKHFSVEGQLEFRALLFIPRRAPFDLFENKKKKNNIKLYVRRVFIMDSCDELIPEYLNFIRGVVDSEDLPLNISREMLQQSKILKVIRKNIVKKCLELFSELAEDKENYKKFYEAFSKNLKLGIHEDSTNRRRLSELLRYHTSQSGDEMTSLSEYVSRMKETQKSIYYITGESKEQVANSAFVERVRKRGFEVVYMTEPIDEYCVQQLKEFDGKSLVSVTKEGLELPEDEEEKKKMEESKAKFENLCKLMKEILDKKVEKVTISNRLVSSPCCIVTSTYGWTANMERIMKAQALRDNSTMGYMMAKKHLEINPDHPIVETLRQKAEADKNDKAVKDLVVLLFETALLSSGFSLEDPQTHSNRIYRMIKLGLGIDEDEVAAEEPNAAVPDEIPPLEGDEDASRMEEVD

CSc1nc(-c2ccc(C)cc2C)c2nc(Cl)[nH]c2n1 [Example 31, 8-Chloro-6-(2,4-dimethyl-phenyl)-2-methylsulfanyl-9H-purine] and CSc1nc(-c2ccc(C)cc2C)c2nc(C)[nH]c2n1 [Example 32, 6-(2,4-Dimethyl-phenyl)-8-methyl-2-methylsulfanyl-9H-purine] cannot be ordered by IC50: greater than 10 µM for the first, greater than 10 µM for the second.

Going from Clc1nc(-c2ccc3c(c2)CCO3)c2nc[nH]c2n1 [Example 5] to Clc1ccc(-c2nc(Cl)nc3[nH]cnc23)c(Cl)c1 [Example 1, 2-Chloro-6-(2,4-dichloro-phenyl)-9H-purine], the IC50 falls from greater than 10 µM to less than 10 µM. The second is the more potent here.

CCN(CC)CCOc1cc(-c2nc(SC)nc3[nH]cnc23)c(Cl)cc1C [Example 29, {2-[4-Chloro-2-methyl-5-(2-methylsulfanyl-9H-purin-6-yl)-phenoxy]-ethyl}-diethyl-amine] and CCN(CC)CCOc1cc(-c2nc(Cl)nc3[nH]cnc23)c(Cl)cc1C [Example 28, {2-[4-Chloro-5-(2-chloro-9H-purin-6-yl)-2-methyl-phenoxy]-ethyl}-diethyl-amine] cannot be ordered by IC50: less than 10 µM for the first, less than 10 µM for the second.

Clc1ccc(-c2nc(Sc3nc[nH]n3)nc3[nH]cnc23)c(Cl)c1 [Example 18] and CSc1nc(-c2ccc(Cl)cc2Cl)c2nc[nH]c2n1 [Example 14, 6-(2,4-dichloro-phenyl)-2-methylsulfanyl-9H-purine] cannot be ordered by IC50: less than 10 µM for the first, less than 10 µM for the second.

CSc1nc(-c2ccc(Cl)cc2C)c2nc[nH]c2n1 [Example 19] and CSc1nc(-c2ccc(F)cc2C)c2nc[nH]c2n1 [Example 15, 6-(2-methyl-4-fluoro-phenyl)-2-methylsulfanyl-9H-purine] cannot be ordered by IC50: less than 10 µM for the first, less than 10 µM for the second.

First: Cc1ccc(-c2nc(Cl)nc3[nH]cnc23)c2ccccc12 [Example 4]
Second: Cc1cc(F)ccc1-c1nc(Cl)nc2[nH]cnc12 [Example 10]
The IC50 of the first is higher: greater than 10 µM for the first, less than 10 µM for the second. The second is the more potent here.

First: CSc1nc(-c2ccc3ccccc3c2)c2nc[nH]c2n1 [Example 17]
Second: CSc1nc(-c2ccc(C#N)cc2)c2nc[nH]c2n1 [Example 13, 6-(4-cyano-phenyl)-2-methylsulfanyl-9H-purine]
The IC50 of the first is higher: greater than 10 µM for the first, less than 10 µM for the second. The second is the more potent here.

Compared with CS(=O)(=O)c1nc(-c2ccc(Cl)cc2Cl)c2nc[nH]c2n1 [Example 25, 6-(2,4-Dichloro-phenyl)-2-methanesulfonyl-7H-purine], COc1nc(-c2ccc(Cl)cc2Cl)c2nc[nH]c2n1 [Example 23, 6-(2,4-Dichloro-phenyl)-2-methoxy-9H-purine] is lower in IC50: greater than 10 µM for the first, less than 10 µM for the second. The second is the more potent here.

CCOC(=O)CSc1nc(-c2ccc(Cl)cc2Cl)c2nc[nH]c2n1 [Example 20] and CCNC(=O)CSc1nc(-c2ccc(Cl)cc2Cl)c2nc[nH]c2n1 [Example 16] cannot be ordered by IC50: less than 10 µM for the first, less than 10 µM for the second.

CSc1nc(-c2cc(OCc3ccccc3)c(Cl)cc2Cl)c2nc[nH]c2n1 [Example 12, 6-(5-benzyloxy-2,4-dichloro-phenyl)-2-methylsulfanyl-9H-purine] and Clc1nc(-c2cc(OCc3ccccc3)c(Cl)cc2Cl)c2nc[nH]c2n1 [Example 2, 6-(5-Benzyloxy-2,4-dichloro-phenyl)-2-chloro-9H-purine] cannot be ordered by IC50: less than 10 µM for the first, less than 10 µM for the second.

N#Cc1ccc(-c2nc(Cl)nc3[nH]cnc23)cc1 [Example 6] and Clc1nc(-c2ccccc2)c2nc[nH]c2n1 [Example 11] cannot be ordered by IC50: less than 10 µM for the first, less than 10 µM for the second.

Going from CCNC(=O)C(C)(C)Sc1nc(-c2ccc(Cl)cc2Cl)c2nc[nH]c2n1 [Example 21] to CN(C)CCSc1nc(-c2ccc(Cl)cc2Cl)c2nc[nH]c2n1 [Example 22], the IC50 falls from greater than 10 µM to less than 10 µM.

Cc1ccc(-c2nc(Cl)nc3[nH]cnc23)c(C)c1 [Example 3] and Cc1cc(Cl)ccc1-c1nc(Cl)nc2[nH]cnc12 [Example 9] cannot be ordered by IC50: less than 10 µM for the first, less than 10 µM for the second.

CCN(CC)CCOc1cc(-c2nc(Cl)nc3[nH]cnc23)c(Cl)cc1Cl [Example 35, {2-[2,4-Dichloro-5-(2-chloro-9H-purin-6-yl)-phenoxy]-ethyl}-diethyl-amine] and CN(C)CCCOc1cc(-c2nc(Cl)nc3[nH]cnc23)c(Cl)cc1Cl [Example 34, {3-[2,4-Dichloro-5-(2-chloro-9H-purin-6-yl)-phenoxy]-propyl}-dimethyl-amine] cannot be ordered by IC50: less than 10 µM for the first, less than 10 µM for the second.

First: C[S+]([O-])c1nc(-c2ccc(Cl)cc2Cl)c2nc[nH]c2n1 (stereo not drawn) [Example 26, 6-(2,4-Dichloro-phenyl)-2-methanesulfinyl-7H-purine]
Second: Cc1ccc(-c2nc(Cl)nc3[nH]cnc23)c(Cl)c1 [Example 8]
The IC50 of the first is higher: greater than 10 µM for the first, less than 10 µM for the second. The second is the more potent here.

O=C1CCCN1CCOc1cc(-c2nc(Cl)nc3[nH]cnc23)c(Cl)cc1Cl [Example 37, 1-{2-[2,4-Dichloro-5-(2-chloro-9H-purin-6-yl)-phenoxy]-ethyl}-pyrrolidin-2-one] and Clc1nc(-c2cc(OCCN3CCCC3)c(Cl)cc2Cl)c2nc[nH]c2n1 [Example 36, 2-Chloro-6-[2,4-dichloro-5-(2-pyrrolidin-1-yl-ethoxy)-phenyl]-9H-purine] cannot be ordered by IC50: less than 10 µM for the first, less than 10 µM for the second.

Cc1cc(Cl)c(-c2nc(Cl)nc3[nH]cnc23)cc1O [Example 27, 4-Chloro-5-(2-chloro-9H-puriny-6-yl)-2-methyl-phenol] and CCN(CC)Cc1ccc(COc2cc(-c3nc(Cl)nc4[nH]cnc34)c(Cl)cc2Cl)cc1 [Example 24, {4-[2,4-Dichloro-5-(2-chloro-9H-purin-6-yl)-phenoxymethyl]-benzyl}-diethyl-amine] cannot be ordered by IC50: less than 10 µM for the first, less than 10 µM for the second.

Compared with CCNC(=O)CSc1nc(-c2cc(OCCN(CC)CC)c(C)cc2Cl)c2nc[nH]c2n1 [Example 30, 2-{6-[2-Chloro-5-(2-diethlamino-ethoxy)-4-methyl-phenyl]-9H-purin-2-ylsulfanyl}-N-ethyl Acetamide], CSc1nc(-c2ccc(C)cc2C)c2nc(C#N)[nH]c2n1 [Example 33, 6-(2,4-Dimethyl-phenyl)-2-methylsulfanyl-9H-purine-8-carbonitrile] is higher in IC50: less than 10 µM for the first, greater than 10 µM for the second. The first is the more potent here.
